Tested on: LPS induced TNF release
Assay: THP1 cell assay (LPS induced TNF release)
Assay type: cell-based
Conditions: Homo sapiens, THP-1; THP1 cells, LPS induced TNF-α secretion, 3 h at 37° C.
Description: Lipopolysaccharide-Activated THP1 Cell TNF Production Assay
THP1 cells are resuspended in fresh THP1 media (RPMI 1640, 10% heat-inactivated FBS, 1XPGS, 1XNEAA, plus 30 μM OME) at a concentration of 1E6/mL. One hundred microliters of cells per well are plated in a polystyrene 96-well tissue culture. One microgram per mL of bacterial LPS is prepared in THP1 media and is transferred to the wells. Test compounds are dissolved in 100% DMSO and are serially diluted 3-fold in a polypropylene 96-well microtiter plate (drug plate). HI control and LO control wells contain only DMSO. One microliter of test compound from the drug plate followed by 10 μL of LPS are transferred to the cell plate. The treated cells are induced to synthesize and secrete TNF-α at 37° C. for 3 h. Forty microliters of conditioned media are transferred to a 96-well polypropylene plate containing 110 μL of ECL buffer (50 mM Tris-HCl pH 8.0, 100 mM NaCl, 0.05% Tween 20, 0.05% NaN3 and 1% FBS) supplemented with 0.44 nM MAB610 monoclonal Ab (R&D Systems), 0.34 nM ruthenylated AF210NA polyclonal Ab (R&D Systems) and 44 μg/mL sheep anti-mouse M280 Dynabeads (Dynal). After a 2 h incubation at RT with shaking, the reaction is read on the ECL M8 Instrument (IGEN Inc.). A low voltage is applied to the ruthenylated TNF-α immune complexes, which in the presence of TPA (the active component in Origlo), results in a cyclical redox reaction generating light at […]. The amount of secreted TNF-α in the presence of compound compared with that in the presence of DMSO vehicle alone (HI control) is calculated using the formula: % control (POC)=(cpd−average LO)/(average HI−average LO)*100. Data (consisting of POC and inhibitor concentration in μM) is fitted to a 4-parameter equation (y=A+((B−A)/(I+((x/C)ˆD))), where A is the minimum y (POC) value, B is the maximum y (POC), C is the x (cpd concentration) at the point of inflection and D is the slope factor) using a Levenburg-Marquardt non-linear regression algorithm.

Row | IC50 | Structure (SMILES)
1 | ≤ 20 µM | CN(C)Cc1cc2c(nc1-c1ccccc1)N(c1ccnc(NCCc3ccccc3)n1)CCC2 [Example 71, 4-(6-((Dimethylamino)methyl)-7-phenyl-3,4-dihydro-1,8-naphthyridin-1(2H)-yl)-N-phenethylpyrimidin-2-amine]
2 | ≤ 20 µM | CC(=O)c1cc2c(nc1-c1ccccc1)N(c1ccnc(NCCc3ccccc3)n1)CCC2 [Example 72, 1-(8-(2-(Phenethylamino)pyrimidin-4-yl)-2-phenyl-5,6,7,8-tetrahydro-1,8-naphthyridin-3-yl)ethanone]
3 | ≤ 20 µM | CC(O)c1cc2c(nc1-c1ccccc1)N(c1ccnc(NCCc3ccccc3)n1)CCC2 (centres unmarked) [Example 73, 1-(8-(2-(Phenethylamino)pyrimidin-4-yl)-2-phenyl-5,6,7,8-tetrahydro-1,8-naphthyridin-3-yl)ethanol]
4 | ≤ 20 µM | CCOC(=O)c1cc2c(nc1-c1ccccc1)N(c1ccnc(N[C@H]3CC[C@H](N)CC3)n1)CCC2 [Example 75, Ethyl 8-(2-((1R,4R)-4-aminocyclohexylamino)pyrimidin-4-yl)-2-phenyl-5,6,7,8-tetrahydro-1,8-naphthyridine-3-carboxylate]
5 | ≤ 20 µM | N[C@H]1CC[C@H](Nc2nccc(N3CCCc4cc(CO)c(-c5ccccc5)nc43)n2)CC1 [Example 76, (8-(2-((1R,4R)-4-Aminocyclohexylamino)pyrimidin-4-yl)-2-phenyl-5,6,7,8-tetrahydro-1,8-naphthyridin-3-yl)methanol]
6 | ≤ 20 µM | CC(C)(O)c1cc2c(nc1-c1ccccc1)N(c1ccnc(N[C@H]3CC[C@H](N)CC3)n1)CCC2 [Example 78, 2-(8-(2-((1R,4R)-4-Aminocyclohexylamino)pyrimidin-4-yl)-2-phenyl-5,6,7,8-tetrahydro-1,8-naphthyridin-3-yl)propan-2-ol]
7 | ≤ 20 µM | CCOC(=O)c1cc2c(nc1-c1ccccc1)N(c1ccnc(NC(C)Cc3cccc(CO)c3)n1)CCC2 (centres unmarked) [Example 79, Ethyl 8-(2-(1-(3-(hydroxymethyl)phenyl)propan-2-ylamino)pyrimidin-4-yl)-2-phenyl-5,6,7,8-tetrahydro-1,8-naphthyridine-3-carboxylate]
8 | ≤ 20 µM | CC(Cc1cccc(CN)c1)Nc1nccc(N2CCCc3cc(CO)c(-c4ccccc4)nc32)n1 (centres unmarked) [Example 80, (8-(2-(1-(3-(Aminomethyl)phenyl)propan-2-ylamino)pyrimidin-4-yl)-2-phenyl-5,6,7,8-tetrahydro-1,8-naphthyridin-3-yl)methanol]
9 | ≤ 20 µM | Nc1cc2c(nc1-c1ccccc1)N(c1ccnc(NCCc3ccccc3)n1)CCC2 [Example 81, 8-(2-(Phenethylamino)pyrimidin-4-yl)-2-phenyl-5,6,7,8-tetrahydro-1,8-naphthyridin-3-amine]
10 | ≤ 20 µM | OCc1cc(-c2ccccc2)nc2c1CCCN2c1ccnc(NCCc2ccccc2)n1 [Example 86, (8-(2-(Phenethylamino)pyrimidin-4-yl)-2-phenyl-5,6,7,8-tetrahydro-1,8-naphthyridin-4-yl)methanol]
11 | ≤ 20 µM | CCOC(=O)N1CCC(Nc2nccc(N3CCCc4ccc(-c5ccccc5)nc43)n2)CC1 [Example 87, Ethyl-4-(4-(7-phenyl-3,4-dihydro-1,8-naphthyridin-1(2H)-yl)pyrimidin-2-ylamino)-piperidine-1-carboxylate]
12 | ≤ 20 µM | NC1CCC(Nc2nccc(N3CCCc4ccc(-c5ccccc5)nc43)n2)CC1 [Example 88, (1R,4R)-N^1-(4-(7-Phenyl-3,4-dihydro-1,8-naphthyridin-1(2H)-ylpyrimidin-2-yl)-cyclohexane-1,4-diamine]
13 | ≤ 20 µM | CC(C)NC1CCC(Nc2nccc(N3CCCc4ccc(-c5ccccc5)nc43)n2)CC1 [Example 89, (1R,4R)-N^1-Isopropyl-N^4-(4-(7-phenyl-3,4-dihydro-1,8-naphthyridin-1(2H)-yl)pyrimidin-2-yl)cyclohexane-1,4-diamine]
14 | ≤ 20 µM | CC(=O)NC1CCC(Nc2nccc(N3CCCc4ccc(-c5ccccc5)nc43)n2)CC1 [Example 90, N-((1R,4R)-4-(4-(7-Phenyl-3,4-dihydro-1,8-naphthyridin-1(2H)-yl)pyrimidin-2-ylamino)cyclohexyl)acetamide]
15 | ≤ 20 µM | C[C@@H](Cc1cccc([C@@H](C)N)c1)Nc1nccc(N2CCCc3ccc(-c4ccccc4)nc32)n1 [Example 91, N-((S)-1-(3-((R)-1-Aminoethyl)phenyl)propan-2-yl)-4-(7-phenyl-3,4-dihydro-1,8-naphthyridin-1(2H)-yl) pyrimidin-2-amine]
16 | ≤ 20 µM | C[C@@H](Cc1cccc([C@@H](C)NC(=O)OC(C)(C)C)c1)Nc1nccc(N2CCOc3cnc(-c4ccccc4)nc32)n1 [Example 99, tert-Butyl (R)-1-(3-((S)-2-(4-(2-phenyl-6,7-dihydropyrimido[5,4-b][1,4]oxazin-8-yl)pyrimidin-2-ylamino)propyl)phenyl)ethylcarbamate]
17 | ≤ 20 µM | C[C@@H](Cc1cccc([C@@H](C)N)c1)Nc1nccc(N2CCOc3cnc(-c4ccccc4)nc32)n1 [Example 100, N-((S)-1-(3-((R)-1-Aminoethyl)phenyl)propan-2-yl)-4-(2-phenyl-6,7-dihydropyrimido[5,4-b][1,4]oxazin-8-yl)pyrimidin-2-amine]
18 | ≤ 20 µM | N[C@H]1CC[C@H](Nc2nccc(N3CCOc4cnc(-c5ccccc5)nc43)n2)CC1 [Example 102, (1R,4R)-N^1-(4-(2-Phenyl-6,7-dihydropyrimido[5,4-b][1,4]oxazin-8-yl)pyrimidin-2-yl)cyclohexane-1,4-diamine]
19 | ≤ 20 µM | c1ccc(-c2ncc3c(n2)N(c2ccnc(NC4CCNCC4)n2)CCO3)cc1 [Example 106, 4-(2-Phenyl-6,7-dihydropyrimido[5,4-b][1,4]oxazin-8-yl)-N-(piperidin-4-yl)-pyrimidin-2-amine]
20 | ≤ 20 µM | CC(=O)N1CCC(Nc2nccc(N3CCOc4cnc(-c5ccccc5)nc43)n2)CC1 [Example 107, 1-(4-(4-(2-Phenyl-6,7-dihydropyrimido[5,4-b][1,4]oxazin-8-yl)pyrimidin-2-yl-amino)piperidin-1-yl)ethanone]
21 | ≤ 20 µM | C[C@@H](Cc1cccc(C(C)(C)N)c1)Nc1nccc(N2CCOc3cnc(-c4ccccc4)nc32)n1 [Example 108, (S)-N-(1-(3-(2-Aminopropan-2-yl)phenyl)propan-2-yl)-4-(2-phenyl-6,7-dihydropyrimido[5,4-b][1,4]oxazin-8-yl)pyrimidin-2-amine]
22 | ≤ 20 µM | C[C@H](N)c1cccc(C[C@H](C)Nc2nccc(N3CCCc4cnc(-c5ccccc5)cc43)n2)c1 [Example 109, N-((S)-1-(3-((S)-1-Aminoethyl)phenyl)propan-2-yl)-4-(7-phenyl-3,4-dihydro-1,6-naphthyridin-1(2H)-yl)pyrimidin-2-amine]

Row | Structure (SMILES) | IC50
23 | CCOC(=O)c1cc2c(nc1-c1ccccc1)N(c1ccnc(NC3CCN(C(=O)OC(C)(C)C)CC3)n1)CCC2 [Example 74, Ethyl 8-(2-(1-(tert-butoxycarbonyl)piperidin-4-ylamino)pyrimidin-4-yl)-2-phenyl-5,6,7,8-tetrahydro-1,8-naphthyridine-3-carboxylate] | ≤ 20 µM

Reference: US20060161001A1, “Substituted heterocyclic compounds and methods of use” (Amgen Inc., priority 2004, published 2006)
